Key:
[1] = system: liver cells; assay: In vivo LNP delivery of nanoplasmid CMV-firefly luciferase DNA to liver of juvenile mice, BLI; conditions: juvenile female BALB/C mice age 14 days; 0.25 mg/kg nanoplasmid CMV-firefly luciferase retroorbital i.v.; BLI at 4 hr
Method: Juvenile female BALB/C mice of age 14 days (n=4/group) were retroorbitally intravenously administered 0.25 mg/kg of nanoplasmid CMV-firefly luciferase (Nature Technology Corp) formulated with LNP compositions as described in Example 66. One group of mice was treated with vehicle (PBS, Thermo Fisher Scientific, USA) as a negative control.
(§1) The location and extent of luciferase expression in treated and control mice were determined at 4 hr by bioluminescent imaging (BLI) of anesthetized mice using an IVIS Lumina in vivo imaging system (Perkin Elmer) according to the manufacturer's instructions. Briefly, mice were anesthetized using isoflurane in oxygen, and placed supine on a heated stage. Mice were then administered D-luciferin (Perkin-Elmer #122799) IP, and BLI was performed.

[2] = system: liver cells; assay: In vivo LNP delivery of firefly luciferase DNA to liver of adult mice, BLI; set-up: species or system BALB/C mice; conditions: BLI at 24 hr; for Mean Liver Luciferase Flux (p/s): AM-TTR firefly luciferase nanoplasmid DNA 0.5 mg/kg, adult BALB/C, n=3
Method: as §1
as §1, with “4 hr and 48” for “4”
as §1, with “24” for “4”
One group of mice was treated with an LNP composition of the present disclosure comprising Compound No. 30 as a positive control.
as §1, with “hr for RNA delivery, or 48 hr for DNA delivery,” for “hr”

[3] = Physical characteristics of LNPs (particle size, PDI); assay type: physicochemical; conditions: for PDI DNA / Particle Size (nm) DNA: LNP with Fluc DNA, compound/DOPE/Cholesterol/DMG-PEG2000 38/50/10.0/2.0, Lipid:DNA 45:1 (w/w); for PDI RNA / Particle Size (nm) RNA: LNP with Fluc mRNA, compound/DOPE/Cholesterol/DMG-PEG2000 41.44/45.85/10/2.7, Lipid:RNA 40:1 (w/w)
Method: LNP compositions of the present disclosure comprising exemplary compounds of Formula (I) were prepared by combining various percentages of an exemplary compound of Formula (I), the phospholipid DOPE, the structural lipid cholesterol (Chol) and 1,2-dimyristoyl-sn-glycerol methoxypolyethylene glycol (DMG-PEG2000; Avanti Polar Lipids, Alabaster, Alabama, USA).
Individual 25 mg/ml stock solutions were prepared by solubilizing the lipids in 200-proof HPLC-grade ethanol and stock solutions were stored at −80° C. until formulated. At the time of formulation, the lipid stock solutions were briefly allowed to equilibrate to room temp and then placed on a hot plate maintained at a temperature range of 50-55° C.
A 1 mg/ml solution of the desired mRNA or DNA to be incorporated into the LNPs was added to 150 mM sodium acetate buffer (pH 5.2) to form a stock solution and kept on ice. The aqueous mRNA or DNA was then added to the lipids as shown in Table 4 or 5 and hand-mixed vigorously with a single channel pipettor.
The resultant mRNA or DNA LNP compositions were then transferred to a Repligen Float-A-Lyzer dialysis device-having a molecular weight cut off (MWCO) of 8-10 kDa (Spectrum Chemical Mfg. Corp, CA, USA) and processed by dialysis against phosphate buffered saline (PBS) (dialysate: dialysis buffer volume at least 1:200 v/v), pH 7.4 overnight at 4° C. (or alternatively room temperature for at least 4 hours), to remove the 25% ethanol and achieve a complete buffer exchange. In some experiments the LNPs were further concentrated by in an Amicon® Ultra-4 centrifugal filter unit, MWCO-30 kDa (Millipore Sigma, USA) spun at ˜4100 x g in an ultracentrifuge. The mRNA and DNA LNPs were then stored at 4° C. until further use.
LNP compositions of the present disclosure comprising mRNA or DNA encoding firefly luciferase (hereafter “Fluc”; TriLink) and COMPOUNDS 5-49 were prepared as described in Example 61 by combining one of COMPOUNDS 5-49, the phospholipid DOPE, the structural lipid cholesterol (Chol) and 1,2-dimyristoyl-sn-glycerol methoxypolyethylene glycol (DMG-PEG2000) in the percentages presented in Tables 6 and 7:
The physical characteristics of the resulting LNPs were analyzed.
A 1 mg/ml solution of the 5′-CleanCap--fLuciferase mRNA (TriLink Biotech) to be incorporated into the LNPs was added to 150 mM sodium acetate buffer (pH 5.2) to form a stock solution and kept on ice. The lipid phase was mixed with the aqueous mRNA phase inside a microfluidic chip using a NanoAssemblr® instrument (Precision Nanosystems, Vancouver, BC, Canada) according to the manufacturer's instructions to form LNP compositions comprising encapsulated mRNAs.
The average particle size diameter of the LNPs was approximately 75-150 nm.

[4] = Body weight change of mice after LNP administration; assay type: in vivo, BALB/C mice; conditions: for Ave weight change (gram) n = 3: 24 hrs after 0.5 mg/kg LNP encapsulating firefly luciferase mRNA, adult female BALB/C mice; for % Body Weight Change 24 hr: LNP compositions of Table 25, 0.5 mg/kg fLuciferase mRNA i.v., 24 hr post-administration vs baseline
Method: The mice above were also monitored for changes in body weight after LNP delivery. Mice were manually weighed on a scale before LNP dosage and then weighed 24 hrs after administration of 0.5 mg/kg of LNP article encapsulating Cleancap firefly luciferase mRNA. The average of weight change n=3 is reported below.
In addition, the body weight of mice treated with the LNP compositions of Table 25 was assessed prior to intravenous administration and twenty-four hours post-administration and the body weights at baseline and post-treatment were compared. The average percentage of body weight change for each group of mice treated with each LNP composition of Table 25 is shown in Table 28. […]

[5] = system: liver cells; assay: In vivo LNP delivery of firefly luciferase mRNA to liver, bioluminescent imaging (BLI); set-up: species or system BALB/C mice; conditions: 0.5 mg/kg fLuciferase mRNA i.v., BLI at 4 hr; for Mean Liver Luciferase Flux (p/s): LNP compositions of Table 25, adult female BALB/C, n=3; for Ave flux (p/s) n = 3: adult female BALB/C mice, LNP as in Example 66
Method: Adult female BALB/C mice (n=3/group) were intravenously administered 0.5 mg/kg of 5′-CleanCap-fLuciferase mRNA (TriLink Biotech) formulated with LNP compositions as described in Example 66. One group of mice was treated with vehicle (PBS, Thermo Fisher Scientific, USA) as a negative control.
as §1
Adult female BALB/C mice (n=3/group) were intravenously administered 0.5 mg/kg of 5′-CleanCap-fLuciferase mRNA (TriLink Biotech) formulated with the LNP compositions shown in Table 25. One group of mice was treated with vehicle (PBS, Thermo Fisher Scientific, USA) as a negative control. […]

SMILES | PDI DNA [3] | Particle Size (nm) DNA [3] [nm] | PDI RNA [3] | Particle Size (nm) RNA [3] [nm] | Ave flux (p/s) n = 4 [1] [p/s] | luciferase expression by BLI after DNA LNP, liver specific promoter (in words) ([2]; 0.5 mg/kg total DNA, nanoplasmid firefly luciferase under AM-TTR promoter, adult BALB/C mice) | Mean Liver Luciferase Flux (p/s) ([2]; LNP (Table 47) with Compound No. 30 prepared according to Alternative General Procedure K) | Mean Liver Luciferase Flux (p/s) ([2]; LNP (Table 47) with Compound No. 30 prepared according to Alternative General Procedure L) | Mean Liver Luciferase Flux (p/s) ([2]; LNP (Table 47) with Compound No. 30 prepared according to Example 21) | Ave weight change (gram) n = 3 [4] [gram] | % Body Weight Change 24 hr [4] [%] | Mean Liver Luciferase Flux (p/s) [5] [p/s] | Ave flux (p/s) n = 3 [5] [p/s]
CC(C)=CCCC1=CCC(C(=O)OCCOC(=O)CCN(CCCN(C)CCCN(CCC(=O)OCCOC(=O)C2CC=C(CCC=C(C)C)CC2)CCC(=O)OCCOC(=O)C2CC=C(CCC=C(C)C)CC2)CCC(=O)OCCOC(=O)C2CC=C(CCC=C(C)C)CC2)CC1 (stereo not drawn) [Compound 23] | 0.189 | 332.8 | 0.184 | 434.4 | 3012500000 |  |  |  |  | −5.97 |  |  | 6.24E+09
CC(C)=CCCC1=CCC(C(=O)OCCOC(=O)CCN(CCCN(C)C)CCC(=O)OCCOC(=O)C2CC=C(CCC=C(C)C)CC2)CC1 (stereo not drawn) [Compound 19, ((3,3′-((3-(dimethylamino)propyl)azanediyl)bis(propanoyl))bis(oxy))bis(ethane-2,1-diyl)bis(4-(4-methylpent-3-en-1-yl)cyclohex-3-enecarboxylate)] | 0.131 | 213.9 | 0.133 | 220.1 |  |  |  |  |  | 0.70 |  |  | 1.10E+06
CC(C)=CCC/C(C)=C/CCC1=CCC(C(=O)OCCOC(=O)CCN(CCC(=O)OCCOC(=O)C2CC=C(CC/C=C(\C)CCC=C(C)C)CC2)CC(C)N(CCC(=O)OCCOC(=O)C2CC=C(CC/C=C(\C)CCC=C(C)C)CC2)CCC(=O)OCCOC(=O)C2CC=C(CC/C=C(\C)CCC=C(C)C)CC2)CC1 (stereo not drawn) [Compound 8] | 0.167 | 319.6 | 0.073 | 312.8 |  |  |  |  |  | −2.53 |  |  | 1.10E+07

Now from value to compound, other results behind:

PDI DNA [3] | Particle Size (nm) DNA [3] [nm] | PDI RNA [3] | Particle Size (nm) RNA [3] [nm] | SMILES | Ave flux (p/s) n = 4 [1] [p/s] | luciferase expression by BLI after DNA LNP, liver specific promoter (in words) ([2]; 0.5 mg/kg total DNA, nanoplasmid firefly luciferase under AM-TTR promoter, adult BALB/C mice) | Mean Liver Luciferase Flux (p/s) ([2]; LNP (Table 47) with Compound No. 30 prepared according to Alternative General Procedure K) | Mean Liver Luciferase Flux (p/s) ([2]; LNP (Table 47) with Compound No. 30 prepared according to Alternative General Procedure L) | Mean Liver Luciferase Flux (p/s) ([2]; LNP (Table 47) with Compound No. 30 prepared according to Example 21) | Ave weight change (gram) n = 3 [4] [gram] | % Body Weight Change 24 hr [4] [%] | Mean Liver Luciferase Flux (p/s) [5] [p/s] | Ave flux (p/s) n = 3 [5] [p/s]
0.167 | 276.9 | 0.170 | 326.7 | CC(C)CCCC1CCC(C(=O)OCCOC(=O)CCN(CCCN(C)CCCN(CCC(=O)OCCOC(=O)C2CCC(CCCC(C)C)CC2)CCC(=O)OCCOC(=O)C2CCC(CCCC(C)C)CC2)CCC(=O)OCCOC(=O)C2CCC(CCCC(C)C)CC2)CC1 (stereo not drawn) [Compound 30] | 7332500000 | successfully delivered DNA to liver cells | 31400000 | 29600000 | 21266666.67 | −5.67 | −2.8 | 1.28e11 | 3.26E+10
0.108 | 326.3 | 0.142 | 354.0 | CC(C)CCCC(C)CCCC1CCC(C(=O)OCCOC(=O)CCN(CCCN2CCN(CCCN(CCC(=O)OCCOC(=O)C3CCC(CCCC(C)CCCC(C)C)CC3)CCC(=O)OCCOC(=O)C3CCC(CCCC(C)CCCC(C)C)CC3)CC2)CCC(=O)OCCOC(=O)C2CCC(CCCC(C)CCCC(C)C)CC2)CC1 (stereo not drawn) [Compound 16, ((3,3′,3″,3″-((piperazine-1,4-diylbis(propane-3,1-diyl))bis(azanetriyl))tetrakis(propanoyl))tetrakis(oxy))tetrakis(ethane-2,1-diyl)tetrakis(4-(4,8-dimethylnonyl)cyclohexanecarboxylate)] | 8905000000 |  |  |  |  | −3.60 |  |  | 3.67E+10
0.081 | 317.2 | 0.197 | 422.3 | CC(C)CCCC1CCC(C(=O)OCCOC(=O)CCN(CCCN2CCN(CCCN(CCC(=O)OCCOC(=O)C3CCC(CCCC(C)C)CC3)CCC(=O)OCCOC(=O)C3CCC(CCCC(C)C)CC3)CC2)CCC(=O)OCCOC(=O)C2CCC(CCCC(C)C)CC2)CC1 (stereo not drawn) [Compound 29] | 9120000000 |  |  |  |  | −6.07 | −2.4 | 3.02e10 | 2.44E+10

— US20250099383A1, “COMPOSITIONS AND METHODS FOR DELIVERY OF NUCLEIC ACIDS” (Poseida Therapeutics, Inc., priority 2022, published 2025)
